Data published in patent US8778837B2, “Use of active substance combinations for controlling animal pests” (priority 2007, dated 2014).
Where “and” joins values, the source holds several entries; their conditions need not be identical. Identical values can stand only once.

Experiments:
Assay type in all cases: in vivo
Spodoptera frugiperda = Spodoptera frugiperda test (cabbage leaf dip)
Excerpt: (§1) The activity to be expected for a given combination of two active substances can be calculated as follows (cf. Colby, S. R., “Calculating Synergistic and Antagonistic Responses of Herbicide Combinations”, Weeds 15, pages 20-22, 1967):
(§2) • X means the degree of destruction expressed in % of the untreated control when using active substance A at an application rate of m ppm or m g/ha, • Y means the degree of destruction expressed in % of the untreated control when using active substance B at an application rate of n ppm or n g/ha, and • E means the degree of destruction expressed in % of the untreated control when employing active substances A and B at application rates of m and n ppm or m and n g/ha, then
(§3) If the actual insecticidal degree of destruction is greater than calculated, the combination is superadditive regarding its destruction, i.e. a synergistic effect is present. In this case, the degree of destruction which is actually observed must exceed the value calculated on the basis of the above formula for the expected degree of destruction (E).
Spodoptera frugiperda Test
(§4) Solvent: 7 parts by weight of dimethylformamide
(§5) Emulsifier: 2 parts by weight of alkylaryl polyglycol ether
(§6) To prepare a suitable preparation of active substance, 1 part by weight of active substance is mixed with the stated amounts of solvent and emulsifier, and the concentrate is diluted to the desired concentration with emulsifier-containing water.
Cabbage leaves (Brassica oleracea) are treated by being dipped into the active substance preparation of the desired concentration and are populated with armyworm caterpillars (Spodoptera frugiperda) while the leaves are still moist.
(§7) After the desired period of time, the destruction is determined in %. Here, 100% means that all the caterpillars have been destroyed; 0% means that no caterpillars have been destroyed. The destruction rates which have been determined are entered in the Colby formula (see sheet 1).

[1] = system: Plutella xylostella, sensitive strain; assay: Plutella xylostella test (sensitive strain, cabbage leaf dip)
Excerpt: as §1, §2, §3
Plutella-Xylostella Test (Sensitive Strain)
as §4, §5, §6
Cabbage leaves (Brassica oleracea) are treated by being dipped into the active substance preparation of the desired concentration and are populated with diamondback moth caterpillars (Plutella xylostella, sensitive strain) while the leaves are still moist.
as §7

[2] = system: Phaedon cochleariae larvae; assay: Phaedon cochleariae larvae test (cabbage leaf dip)
Excerpt: as §1, §2, §3
Phaedon Cochleariae Larvae Test
as §4, §5, §6
Cabbage leaves (Brassica oleracea) are treated by being dipped into the active substance preparation of the desired concentration and are populated with mustard beetle larvae (Phaedon cochleariae) while the leaves are still moist.
After the desired period of time, the destruction is determined in %. Here, 100% means that all the beetle larvae have been destroyed; 0% means that no beetle larvae have been destroyed. The destruction rates which have been determined are entered in the Colby formula (see sheet 1).

Myzus persicae = Myzus persicae test (cabbage leaf dip)
Excerpt: as §1, §2, §3, §4, §5, §6
Cabbage leaves (Brassica oleracea) which are severely infested with the green peach aphid (Myzus persicae) are treated by being dipped into the active substance preparation of the desired concentration.
After the desired period of time, the destruction is determined in %. Here, 100% means that all the aphids have been destroyed; 0% means that no aphids have been destroyed. The destruction rates which have been determined are entered in the Colby formula (see sheet 1).

CN/C(=N\[N+](=O)[O-])NCc1cnc(Cl)s1 [Clothianidin, clothianidin]
Destruction in % after 3 d (Spodoptera frugiperda; 4 ppm): 95% | Destruction in % after 6 d ([1]; 20 ppm): 25% | Destruction in % after 6 d ([2]; 4 ppm): 65% | Destruction in % after 6 d (Myzus persicae; 0.8 ppm): 55%

N#Cc1nn(-c2c(Cl)cc(C(F)(F)F)cc2Cl)c(N)c1[S+]([O-])C(F)(F)F (stereo not shown) [Fipronil, fipronil]
Destruction in % after 6 d (Spodoptera frugiperda; 0.8 ppm): 5% | Destruction in % after 6 d (Myzus persicae; 100 ppm): 65%

O=[N+]([O-])NC1=NCCN1Cc1ccc(Cl)nc1 [Imidacloprid]
Destruction in % after 6 d ([2]; 20 ppm): 75% | Destruction in % after 6 d (Myzus persicae; 0.8 ppm): 75%

N#Cc1ccccc1NC(=O)c1snc(Cl)c1Cl [Isotianil, 3,4-dichloro-2′-cyano-1,2-thiazole-5-carboxanilide]
Destruction in % after 3 d (Spodoptera frugiperda; 500 ppm): 10% | Destruction in % after 6 d ([1]; 500 ppm): 0% | Destruction in % after 6 d ([2]; 500 ppm): 0% | Destruction in % after 1 d (Myzus persicae; 500 ppm): 0% | Destruction in % after 6 d (Myzus persicae; 500 ppm): 10% and 0%

N#C/N=C1\SCCN1Cc1ccc(Cl)nc1 [Thiacloprid]
Destruction in % after 6 d ([1]; 20 ppm): 45% | Destruction in % after 6 d ([2]; 4 ppm): 0% | Destruction in % after 6 d (Myzus persicae; 0.8 ppm): 45%

CN1COCN(Cc2cnc(Cl)s2)/C1=N\[N+](=O)[O-] [Thiamethoxam]
Destruction in % after 6 d (Spodoptera frugiperda; 20 ppm): 70% | Destruction in % after 6 d ([2]; 20 ppm): 80% | Destruction in % after 1 d (Myzus persicae; 0.8 ppm): 75%
